From patent US6635641B2 (Agouron Pharmaceuticals, Inc., priority 2000, dated 2003) come the findings set out here.

Broadly, the Ki is a dissociation constant, usually derived from enzyme kinetics or from competition with a known ligand. By inhibition is commonly meant the relative decrease from the control value, in per cent. The term IC50 denotes the midpoint of a concentration-inhibition curve. By melting point is commonly meant the temperature of the solid-liquid transition.

The target of data set [1] is T1, unphosphorylated VEGF-R2Δ50 (FLVK) (Homo sapiens, UniProt P35968, DEL940-989/E990V).
T1 construct: VEGF-R2Δ50 contains residues 806-939 and 990-1171; made in house; host or cells: baculovirus/insect cells
In words: VEGF-R2 coupled spectrophotometric assay, unphosphorylated construct (FLVK).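 Further: Baculovirus-expressed cytosolic kinase domain, ADP formation linked via pyruvate kinase and lactate dehydrogenase to NADH oxidation, read as falling absorbance at 340 nm.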 Type of data set: biochemical.

The target of data set [2] is T2, FGF-R1 intracellular kinase domain (Homo sapiens, UniProt P11362, C488A/C584S/L457V).
T2 construct: starting from the endogenous methionine residue 456 to glutamate 766; made in house; host or cells: baculovirus expression system
In words: FGF-R spectrophotometric assay.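 Further: coupled PK/LDH enzyme assay: ADP from kinase phosphoryl transfer drives NADH oxidation, read as absorbance decrease at 340 nm, with 2 mM ATP and poly(E4Y1) substrate.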 Format: biochemical. The following applies: @ 1 μM; read-out: FGF-P percent inhibition.
From the text: The intracellular kinase domain of human FGF-R1 was expressed using the baculovirus vector expression system starting from the endogenous methionine residue 456 to glutamate 766, according to the residue numbering system of Mohammadi et al., Mol. Cell.
The production of ADP from ATP that accompanies phosphoryl transfer was coupled to oxidation of NADH using phosphoenolpyruvate (PEP) and a system having pyruvate kinase (PK) and lactic dehydrogenase (LDH). The oxidation of NADH was monitored by following the decrease of absorbance at 340 nm (e340=6.22 cm^−1 mM^−1) using a Beckman DU 650 spectrophotometer. […] Assays were initiated with 5 to 40 nM of enzyme. Ki values were determined by measuring enzyme activity in the presence of varying concentrations of test compounds. The data were analyzed using Enzyme Kinetic and Kaleidagraph software.
The spectrophotometric assay was carried out as described above for VEGF-R2, except for the following changes in concentration: FGF-R=50 nM, ATP=2 mM, and poly(E4Y1)=15 mM.

Data set [3] relates to human umbilical vein endothelial cells (HUVEC). Put plainly: HUVEC proliferation assay (VEGF-stimulated, MTT). Format: cell-based. The following applies: Homo sapiens. Summed up: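 Exponentially growing HUVEC (passage 3-4) were serum-starved 24 h in F12K + 1% FBS, given test compound (final DMSO 0.1%), then stimulated 1 h later with VEGF at 6 ng/ml final. Proliferation read after 72 h by 4 h MTT dye reduction, absorbance at 595.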

Data set [4] addresses T3, phosphorylated VEGF-R2Δ50 (FLVK-P) (Homo sapiens, UniProt P35968, DEL940-989/E990V).
T3 construct: VEGF-R2Δ50 contains residues 806-939 and 990-1171; made in house; host or cells: baculovirus/insect cells
Put plainly: VEGF-R2 coupled spectrophotometric assay, phosphorylated construct (FLVK-P). Type of data set: biochemical. Put shortly:
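Baculovirus-expressed VEGF-R2Δ50 (residues 806-939/990-1171, E990V), optionally autophosphorylated; ADP formation coupled via PK/LDH to NADH oxidation at 340 nm, pH 7.5 Hepes. FLVK-P: 1 mM ATP, 5.1 mM poly(E4Y1), 25 mM MgCl2; FLVK: 3 mM ATP, 20 mM poly(E4Y1), 60 mM MgCl2, 2 mM MnCl2. Ki from activity over compound concentrations.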

Data set [5] concerns lung cancer cells (line MV522). Put plainly: Cancer cell proliferation (MV522) assay (MTT). Format: cell-based. Summed up: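 Proliferation was read by MTT reduction 72 h after compound addition, in a 4-day protocol with no starvation step. Two thousand MV522 cells were seeded in RPMI1640 with 10% FBS and 2 mM glutamine and given 1 day to attach before dosing.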
The next data set has as its target T4, LCK tyrosine kinase (Homo sapiens, UniProt P06239, C224D/P223M).
T4 construct: starting from amino acid residue 223 to the end of the protein at residue 509; made in house; host or cells: insect cells
Put plainly: LCK spectrophotometric assay.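 On all read-outs here: recombinant LCK kinase activity on poly(E4Y1), ADP formation coupled through PK/LDH to NADH oxidation, followed as absorbance loss at 340 nm.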 Format: biochemical. The following applies: for inhibition at 1 µM: read-out: LCK-P percent inhibition; for Ki: read-out: LCK-P Ki.

[6] abbreviates: HUVEC, with albumin, read-out: Huvec + Albumin IC50.
[7] abbreviates: unphosphorylated VEGF-R2 construct.
The mark [8] stands for this setting: HUVEC proliferation with albumin, read-out: Huvec + Albumin IC50.
The mark [9] stands for this setting: VEGF-stimulated HUVEC proliferation, read-out: HUVEC IC50.

Where two headings read alike, the source gives them in different places. Bounds are passed on as bounds.

T2 sequence (P11362 456-766 L457V/C488A/C584S): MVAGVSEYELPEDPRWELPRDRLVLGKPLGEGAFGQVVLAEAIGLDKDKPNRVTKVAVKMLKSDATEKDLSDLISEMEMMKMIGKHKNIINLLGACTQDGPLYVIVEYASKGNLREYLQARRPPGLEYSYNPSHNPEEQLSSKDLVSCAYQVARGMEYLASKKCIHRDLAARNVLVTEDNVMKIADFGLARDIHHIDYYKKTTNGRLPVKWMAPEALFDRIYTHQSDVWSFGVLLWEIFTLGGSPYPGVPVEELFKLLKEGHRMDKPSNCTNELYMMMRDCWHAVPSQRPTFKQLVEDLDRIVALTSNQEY
T4 sequence (P06239 223-509 P223M/C224D): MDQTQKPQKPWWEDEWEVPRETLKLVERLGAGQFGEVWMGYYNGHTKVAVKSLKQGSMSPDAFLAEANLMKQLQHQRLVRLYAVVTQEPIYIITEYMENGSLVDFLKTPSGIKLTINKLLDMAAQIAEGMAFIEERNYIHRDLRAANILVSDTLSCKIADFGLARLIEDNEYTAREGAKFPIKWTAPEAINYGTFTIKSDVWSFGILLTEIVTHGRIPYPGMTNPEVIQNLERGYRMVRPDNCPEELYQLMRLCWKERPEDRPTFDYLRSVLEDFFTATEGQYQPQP
T1 sequence (P35968 with tags, fused parts or gaps DEL940-989/E990V limits assumed): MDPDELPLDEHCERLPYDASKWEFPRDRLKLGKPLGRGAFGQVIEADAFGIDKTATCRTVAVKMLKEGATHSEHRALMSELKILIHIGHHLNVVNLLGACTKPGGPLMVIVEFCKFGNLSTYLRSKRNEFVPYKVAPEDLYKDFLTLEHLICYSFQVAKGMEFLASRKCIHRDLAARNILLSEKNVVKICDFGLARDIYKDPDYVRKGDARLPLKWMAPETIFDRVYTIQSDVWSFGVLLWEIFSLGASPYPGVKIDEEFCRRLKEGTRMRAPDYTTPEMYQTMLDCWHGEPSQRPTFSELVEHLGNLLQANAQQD
T3 sequence (P35968 with tags, fused parts or gaps DEL940-989/E990V limits assumed): as above

For `Cc1cc(NC(=O)c2cccc(C3CC3c3cc(Nc4ccccc4)n[nH]3)c2)ccc1C(C)C` (stereo not drawn) [Example H-1, N-(4-Isopropyl-3-methyl-phenyl)-3-[2-(5-phenylamino-2-H-pyrazol-3-yl)cyclopropyl]-benzamide], the Ki in data set [1] was 0.19 nM; in data set [4] it was 1.19 nM. The inhibition at 1 µM was 83% in data set [2] and 41% at LCK tyrosine kinase. For the same molecule, the IC50 in data set [3] (HUVEC, read-out: HUVEC IC50) was 27 nM; in data set [5] (MV522), over 10000 nM.
Molecule `Cl.O=C(Nc1ccc(N2CCOCC2)c(C(F)(F)F)c1)c1ccc(F)c(OCc2cncc3ccccc23)c1` [Example R-14, 4-Fluoro-N-(4-morpholin-4-yl-3-trifluoromethyl-phenyl)-3-(isoquinolin-4-ylmethoxy)-benzamide] returned a melting point of 175 to 180 °C. In data set [1], this molecule showed a Ki of 3.4 nM. For the same molecule, in data set [2], the inhibition at 1 µM turned out to be 96%. For the same molecule, the IC50 in data set [3] (HUVEC, read-out: HUVEC IC50) came to 14 nM. For the same molecule, the IC50 in data set [3] (setting [6]) was 345 nM. In data set [5] (MV522), this molecule displayed an IC50 of 5700 nM. Moreover, at LCK tyrosine kinase, the inhibition at 1 µM was found to be 87%.
As for `O=C(Nc1ccc(N2CCNCC2)c(C(F)(F)F)c1)c1ccc(F)c(OCc2cncc3ccccc23)c1` [Example R-15, 4-Fluoro-N-(4-piperazin-1-yl-3-trifluoromethyl-phenyl)-3-(isoquinolin-4-ylmethoxy)-benzamide], the Ki in data set [1] is 8.8 nM. For the same molecule, the inhibition at 1 µM in data set [2] worked out at 41%; on LCK tyrosine kinase, 26%. Besides, the IC50 in data set [3] (HUVEC, read-out: HUVEC IC50) is 36 nM; in data set [3] (setting [6]) it was 130 nM; in data set [5] (MV522) it was 3100 nM.
Molecule `CC(C)(C)c1cc(C(=O)Nc2cccc(OCc3cccnc3)c2)ccc1O` [Example X-4, 3-t-Butyl-4-hydroxy-N-[3-(pyridin-3-ylmethoxy)-phenyl]-benzamide] had a melting point of 104 to 107 °C. This molecule displayed a Ki in data set [1] (setting [7]) of 4.1 nM. For the same molecule, the inhibition at 1 µM in data set [2] was determined as 11%. Also, the IC50 in data set [3] (setting [8]) is over 1000 nM. In addition, the IC50 in data set [3] (setting [9]) came out at 71 nM. In data set [5] (MV522 lung cancer cells), this molecule had an IC50 of 6100 nM. The inhibition at 1 µM at LCK tyrosine kinase turned out to be 11%.
Turning to `O=C(Nc1cc(Cl)c(N2CCCC2)c(Cl)c1)c1ccc(F)c(OCc2cccnc2)c1` [Example R-11, N-(3,5-Dichloro-4-pyrrolidin-1-yl-phenyl)-4-fluoro-3-(pyridin-3-ylmethoxy)-benzamide], the melting point fell in the range of 163 to 167 °C. In addition, the inhibition at 0.05 µM in data set [1] (@ 50 nM, read-out: FLVK percent inhibition) amounted to 59%. Moreover, the inhibition at 1 µM in data set [2] stood at 30%. The IC50 in data set [3] (HUVEC, read-out: HUVEC IC50) was determined as 31 nM. Also, on LCK tyrosine kinase, the inhibition at 1 µM was found to be 59%.
As to `Cc1cc(NC(=O)c2ccc(Cl)c(OCc3cncc4ccccc34)c2)ccc1C(C)C` [Example K-12, N-(4-Isopropyl-3-methyl-phenyl)-4-chloro-3-(Isoquinolin-4-yl)methoxy-benzamide], the inhibition at 1 µM turned out to be 70% in data set [2] and 48% on LCK tyrosine kinase. The IC50 turned out to be 27 nM in data set [3] (HUVEC, read-out: HUVEC IC50) and 4700 nM in data set [5] (MV522). This molecule had a Ki in data set [4] of 2.96 nM.
On to `CNS(=O)(=O)c1ccc(Nc2cc(CCc3cccc(C(=O)Nc4ccc(C(C)C)c(C)c4)c3)[nH]n2)cc1` [Example G-1, N-(4-Isopropyl-3-methyl-phenyl)-3-{2-[5-(4-(methylsulfamoyl)phenylamino)-2H-pyrazol-3-yl]-ethyl}-benzamide], for which the inhibition at 1 µM in data set [2] is 81%. In addition, the IC50 in data set [3] (HUVEC, read-out: HUVEC IC50) is 10 nM; in data set [3] (setting [6]) it was 435 nM; in data set [5] (MV522) it was over 10000 nM. The Ki was 0.592 nM in data set [4] and 90 nM at LCK tyrosine kinase.
In the case of `COc1ccc(Nc2cc(CCc3cccc(C(=O)Nc4ccc(C(C)C)c(C)c4)c3)[nH]n2)cn1` [Example G-4, N-(4-Isopropyl-3-methyl-phenyl)-3-{2-[5-(6-methoxypyridin-3-yl)amino-2H-pyrazol-3-yl]-ethyl}-benzamide], the Ki amounted to 0.1 nM in data set [1], 0.79 nM in data set [4] and 72 nM at LCK tyrosine kinase. The inhibition at 1 µM in data set [2] is 77%. Also, the IC50 is 16 nM in data set [3] (HUVEC, read-out: HUVEC IC50) and over 10000 nM in data set [5] (MV522).
Regarding `Cc1cc(NC(=O)c2cccc(CCc3cc(Nc4ccccc4)n[nH]3)c2)ccc1C(C)C` [Example G-3, N-(4-isopropyl-3-methylphenyl)-3-[2-(5-phenylamino-2H-pyrazol-3-yl)ethyl]benzamide], the melting point was 150 to 151 °C. The inhibition at 1 µM in data set [2] stood at 91%. Further, in data set [3] (HUVEC, read-out: HUVEC IC50), the IC50 worked out at 9.8 nM. Besides, in data set [3] (setting [6]), the IC50 turned out to be 280 nM. In addition, the Ki in data set [4] was found to be 0.197 nM. In data set [5] (MV522), this molecule had an IC50 of over 10000 nM. Further, the Ki at LCK tyrosine kinase came out at 11.2 nM.
In the case of `COc1ccc(Nc2cc(CCc3cccc(C(=O)Nc4ccc(N5CCNCC5)c(C(F)(F)F)c4)c3)[nH]n2)cn1` [Example G-10], the results for the Ki in data set [1] and in data set [4] were 3 nM and 2.6 nM, respectively. Further, the inhibition at 1 µM in data set [2] turned out to be 33%; at LCK tyrosine kinase, 48%. Also, the IC50 in data set [3] (HUVEC, read-out: HUVEC IC50) is 5.7 nM; in data set [3] (setting [6]), 180 nM; in data set [5] (MV522) it was 5100 nM.
Turning to `Cc1cc(NC(=O)c2cccc(OCc3cncc4ccccc34)c2)ccc1C(C)C` [Example K-1, N-(4-Isopropyl-3-methyl-phenyl)-3-(Isoquinolin-4-yl)methoxy-benzamide], the Ki in data set [1] worked out at 1.6 nM; in data set [4] it was 1.46 nM; on LCK tyrosine kinase, 59 nM. For the same molecule, the inhibition at 1 µM in data set [2] turned out to be 79%. The IC50 in data set [3] (HUVEC, read-out: HUVEC IC50) was 40 nM; in data set [3] (setting [6]), over 1000 nM; in data set [5] (MV522), 10000 nM.
For the molecule `CC(C)(C)c1cc(C(=O)Nc2cccc(SCc3cccnc3)c2)ccc1O` [Example W-2, 3-t-Butyl-4-hydroxy-N-[3-(pyridin-3-ylmethylsulfanyl)-phenyl]-benzamide], the melting point is 95 to 100 °C. Further, the Ki in data set [1] (setting [7]) was found to be 1.5 nM. The inhibition at 1 µM in data set [2] was 18%. For the same molecule, the IC50 in data set [3] (setting [9]) was 120 nM. At LCK tyrosine kinase, the inhibition at 1 µM is 19%.
As for `COc1ccc(Nc2cc(CCc3cccc(C(=O)Nc4ccc(N(C)C)c(C(F)(F)F)c4)c3)[nH]n2)cn1` [Example G-5, N-(4-Dimethylamino-3-trifluoromethylphenyl)-3-{2-[5-(6-methoxypyridin-3-yl)amino-2H-pyrazol-3-yl]ethyl}-benzamide], the Ki in data set [1] came to 0.35 nM; in data set [4], 1.86 nM; at LCK tyrosine kinase, 69 nM. The inhibition at 1 µM in data set [2] was 68%. The IC50 in data set [3] (HUVEC, read-out: HUVEC IC50) was 8.4 nM; in data set [5] (MV522) it was over 10000 nM.
`CC(C)(C)c1cc(C(=O)Nc2cccc(SCc3cncc4ccccc34)c2)ccc1O.Cl` [Example W-3, 3-t-Butyl-4-hydroxy-N-[3-(isoquinolin-4-ylmethylsulfanyl)-phenyl]-benzamide] returned a melting point of 205 to 210 °C. In addition, affinity in data set [1] (setting [7]) was put at a Ki of 0.7 nM. Besides, the inhibition at 1 µM in data set [2] was 56%. In data set [3] (setting [9]), the IC50 amounted to 220 nM. At LCK tyrosine kinase, the inhibition at 1 µM stood at 65%.
`Cc1ccc(C(=O)Nc2ccc(C(C)C)c(C)c2)cc1OCc1cncc2ccccc12` [Example K-11, N-(4-Isopropyl-3-methyl-phenyl)-4-methyl-3-(Isoquinolin-4-yl)methoxy-benzamide]: the inhibition at 1 µM was determined as 59% in data set [2] and 82% at LCK tyrosine kinase. In addition, the IC50 in data set [3] (HUVEC, read-out: HUVEC IC50) worked out at 37 nM; in data set [5] (MV522) it was 8100 nM. The molecule further gave a Ki in data set [4] of 3.49 nM.
As to `COc1ccc(/C=C/c2cc(CCc3cccc(C(=O)Nc4ccc(C(C)C)c(C)c4)c3)[nH]n2)cc1OC` [Example F-3, 3-(2-{5-[(E)-2-(3,4-Dimethoxyphenyl)ethenyl]-2H-pyrazol-3-yl}-ethyl)-N-(3-methyl-4-isopropylphenyl)-benzamide], the Ki in data set [1] was determined as 0.31 nM; in data set [4], 1.01 nM. Besides, the inhibition at 1 µM in data set [2] worked out at 83%; on LCK tyrosine kinase it was 84%. Further, the IC50 was 10 nM in data set [3] (HUVEC, read-out: HUVEC IC50) and over 10000 nM in data set [5] (MV522).
For the molecule `CC(C)(C)c1cc(C(=O)Nc2cccc(OCc3cncc(Br)c3)c2)ccc1O` [Example X-1, N-[3-(5-Bromo-pyridin-3-ylmethoxy)-phenyl]-3-t-butyl-4-hydroxy-benzamide], the melting point is 105 to 111 °C. In data set [1] (setting [7]), this molecule came in with a Ki of 1.5 nM. In data set [2], the inhibition at 1 µM is 28%. The IC50 in data set [3] (setting [8]) worked out at 330 nM. Moreover, in data set [3] (setting [9]), the 50% inhibitory concentration (IC50) is 27 nM. In addition, the inhibition at 1 µM on LCK tyrosine kinase is 59%.
